Data taken from US10787650B2, “Artificial bioluminescent enzymes” (NATIONAL INSTITUTE OF ADVANCED INDUSTRIAL SCIENCE AND …, priority 2015, dated 2020).
“Also recorded” adds a separate entry of the source. Each block holds one molecule with its values, some of them ahead of it.

What was measured:
[1] = test system: ALuc16; assay: Circular dichroism (CD) measurement of metal cation-mixed ALuc16; settings: varying cation concentrations
Method: Circular dichroism (CD) measurement was further conducted for reasoning the cation-driven degradation of ALuc16 activities (FIG. 9). Samples were prepared by mixing varying concentrations of Pb(II) or Al(III) with column-purified and dialyzed ALuc16, and were measured with a CD spectrometer (JASCO, Japan) after preparation.

[2] = target: TPv2.4 (Homo sapiens, UniProt P42345); settings: for bioluminescence intensity with TPv2.4: lysate of rapamycin-stimulated COS-7 cells, substrate 0.1 μg/μL; for luminescence intensity sustainability: compared with native coelenterazine
TPv2.4, sequence (P42345 with tags, fused parts or gaps): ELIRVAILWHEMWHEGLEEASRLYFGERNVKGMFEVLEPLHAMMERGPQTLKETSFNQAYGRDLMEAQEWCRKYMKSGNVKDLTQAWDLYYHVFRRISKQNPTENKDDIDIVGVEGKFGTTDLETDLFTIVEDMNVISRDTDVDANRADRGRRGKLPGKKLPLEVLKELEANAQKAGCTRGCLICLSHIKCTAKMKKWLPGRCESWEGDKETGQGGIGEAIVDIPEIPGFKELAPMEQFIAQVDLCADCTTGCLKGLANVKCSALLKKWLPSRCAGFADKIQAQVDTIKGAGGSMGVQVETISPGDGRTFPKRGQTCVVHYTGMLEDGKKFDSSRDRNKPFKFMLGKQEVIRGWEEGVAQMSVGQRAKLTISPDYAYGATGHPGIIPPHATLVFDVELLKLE
Method: COS-7 cells were cultured in a 96-well plate, and the cells were transiently transfected with the pcDNA3.1(+) vector encoding TP2.4. After that, the cells were cultured for 2 days. After being stimulated with 10^−6 M rapamycin for 4 hours, the cells in each well were lysed with a cell lysis buffer (50 μl) for 20 minutes. After that, an aliquot of the lysate (10 μL) was transferred to a 96-well transparent-bottom plate. Separately, about 10 kinds of coelenterazine analogs (substrates, 25 μg) were dissolved in 25 μL of ethanol. The solution was further 10-fold diluted with an assay buffer (Promega) to prepare a solution having a final concentration of 0.1 μg/μL. The solution was named substrate solution. 50 μL of the substrate solution was simultaneously introduced into the lysate solution on the plate using a multipipette, and the plate was immediately moved into an image analyzer (LAS-4000, FujiFilm), followed by optical measurement every 5 minutes in a 30-second integration time mode.
The coelenterazine analogs subjected to the measurement in this research were 9 kinds from “Coelenterazine Sampler Kit” of Promokine, i.e., native coelenterazine (nCTZ), coelenterazine h (CTZ h), coelenterazine f (CTZ f), coelenterazine i (CTZ i), coelenterazine n (CTZ n), coelenterazine cp (CTZ-cp), coelenterazine hcp (CTZ hcp), coelenterazine fcp (CTZ fcp), and coelenterazine ip (CTZ ip).

[3] = target: OLuc (Oplophorus gracilirostris, UniProt Q9GV45); settings: cited from earlier work
OLuc, sequence (Q9GV45 28-196): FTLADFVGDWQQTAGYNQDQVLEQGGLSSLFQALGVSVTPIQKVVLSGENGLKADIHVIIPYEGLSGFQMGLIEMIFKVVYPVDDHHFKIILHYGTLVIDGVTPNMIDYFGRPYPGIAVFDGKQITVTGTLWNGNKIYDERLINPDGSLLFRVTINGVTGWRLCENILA

[4] = test system: ALuc16; assay: Metal cation-driven optical intensities of ALuc16 (purified enzyme); assay type: biochemical; settings: metal cation-free Tris-HCl buffer (pH 8.2, 0.05 M), nCTZ
Method: The metal cation-driven optical properties were estimated with ALuc16 (FIG. 6). A metal cation-free sample of ALuc16 was prepared beforehand as follows: we first generated a DNA construct of ALuc16 carrying a Strep-II tag at the C-terminus via PCR. The construct was then cloned into a pOPTHM vector (providing a cleavable N-terminal His6-MBP tag), and expressed in the bacterial strain Shuffle T7 Express (New England Biolabs) with 0.3 mM IPTG induction. […] The lysate was centrifuged at 18,000 rpm for 40 minutes, and then the supernatant was passed over a 5 mL HisTrap HP column (GE Healthcare). […] The eluted sample was dialyzed to a metal-cation-free Tris-HCl buffer (0.05 M, pH 8.2) at 4° C. for 24 hours, and finally adjusted to a concentration of 1 mg/ml by dilution. […] Meanwhile, the corresponding substrate solution carrying nCTZ (Promega) was diluted 100-fold with the cation-free Tris-HCl buffer (Solution B). 50 μL of Solution B was simultaneously injected into Solution A in the 96-well plate with a multichannel micropipette (Gilson). The microplate was immediately moved to an image analyzer (LAS-4000, FujiFilm) equipped with a cooled charge-coupled device (CCD) camera, and the optical intensities were simultaneously estimated in a precision mode. The measurements were conducted in triplicate (n=3). The optical images were analyzed with Multi Gauge V3.2 (FujiFilm). […] The experiment was conducted by the same method as that of FIG. 6. In the inset, the optical image taken with LAS-4000 (FujiFilm) is shown.

[5] = test system: Fridericia luciferase; settings: cited from earlier work
[6] = test system: ALuc16; assay: Cation-driven long-term stability of optical intensities of ALuc16; assay type: biochemical; settings: 60 minutes after substrate injection
Method: The long-term stability of optical intensities was estimated by the same method as that of FIG. 6(A) (FIG. 8(A)). The microplate was placed in the chamber of LAS-4000, and the optical intensities were monitored every 5 minutes, after substrate injection, for a duration of 60 minutes.

[7] = Luminescence activity of novel artificial bioluminescent enzymes (COS-7 cell lysate); assay type: biochemical, African green monkey; settings: COS-7 lysate, native coelenterazine
Method: African green monkey kidney-derived COS-7 cells were cultured using a 96-well microplate. The COS-7 cells were grown until occupying 90% of the bottom-surface area of the culture plate, and, as shown in FIG. 19 and FIG. 20, were each transiently transfected with a pcDNA 3.1(+) vector (Invitrogen) encoding each luminescent enzyme with a lipofection reagent (TransIT-LT1, Mirus). After that, the cells were further cultured for about 1 day. After the culture, cell lysates were prepared using a cell lysis agent (Lysis buffer, Promega), and 5 μL each of the cell lysates was taken from each well and transferred to a 96-well microplate for measurement. An assay buffer (50 μL) containing native coelenterazine was simultaneously added to each well using a multichannel pipette. Immediately after the addition of the assay buffer, the microplate was moved into the black box of an image analyzer (LAS-4000, FujiFilm), and luminescence images were measured with a CCD camera (FIG. 19 and FIG. 20).

[8] = Proton-dependent optical intensities and optical stability of ALucs (COS-7 cell lysate); assay type: biochemical, African green monkey; settings: for elevation of optical intensities at pH 7 as compared to pH 6: COS-7 lysate, nCTZ; for intensities as share of the initial intensities 20 minutes after substrate injection: pH 9, coelenterazine analog
Method: The proton-driven optical intensities of ALucs were calculated to help elucidate the proton-bioluminescence relationship (FIG. 4). […] The cells were cultured and lysed by the same method as that of FIG. 2(B). Then, 10 μL of the lysates in the plate were simultaneously mixed with 40 µL of the substrate solution, which was prepared by mixing a native coelenterazine (nCTZ) stock (FIG. 4(B)) with an aliquot of the universal buffer with the pH ranging from 4 to 9 (final concentration of the substrate: 0.1 mg/ml). Immediately after the substrate injection, the plate was moved into an image analyzer (LAS-4000, FujiFilm), and relative optical intensities were integrated for 30 seconds. The time course of the intensities was estimated every 5 minutes for 20 minutes (FIG. 4(D)).

Molecule: [Cl][Al]([Cl])[Cl] [Al(III)]
effect on structure of ALuc16 (CD spectra, 222 nm) [1]: α-helical portion is gradually decreased; also recorded: destroy the tertiary structure of ALuc16; also recorded: the structure of ALuc16 is denatured

bioluminescence intensity with TPv2.4 [2]: weak luminescence intensities
Molecule: Oc1ccc(Cc2nc3c(CC4CCCC4)nc(-c4ccc(O)cc4)cn3c2O)cc1 [CTZ cp, coelenterazine cp]

bioluminescence intensity with TPv2.4 [2]: weak luminescence intensities
Molecule: Oc1ccc(-c2cn3c(O)c(Cc4ccc(F)cc4)nc3c(CC3CCCC3)n2)cc1 [CTZ fcp, coelenterazine fcp]

bioluminescence intensity with TPv2.4 [2]: weak luminescence intensities
Molecule: Oc1ccc(-c2cn3c(O)c(Cc4ccccc4)nc3c(CC3CCCC3)n2)cc1 [CTZ hcp, coelenterazine hcp]

luminescence half-life from substrate injection [2]: about 15 minutes
Molecule: O=c1c(Cc2ccc(I)cc2)nc2c(Cc3ccccc3)[nH]c(-c3ccc(O)cc3)cn1-2 [CTZ i, coelenterazine i]
luminescence intensity sustainability [2]: longer than that of native coelenterazine

Molecule: [Cl][Cd][Cl] [Cd(II)]
effect on optical intensity of OLuc [3]: inhibited the optical intensity

effect on optical intensities (activities) of ALuc16 [4]: suppress
Molecule: [Cl-].[Cl-].[Co+2] [Co(II)]

Molecule: [Cl][Cu][Cl] [Cu(II)]
effect on optical intensity of OLuc [3]: inhibited the optical intensity
effect on optical intensities (activities) of ALuc16 [4]: suppress

effect on optical intensities (activities) of ALuc16 [4]: little effect
Molecule: [K+] [K^+]

effect on optical intensities (activities) of ALuc16 [4]: little effect
Molecule: [Li+] [Li^+]

Molecule: [Cl-].[Cl-].[Mg+2] [Mg(II)]
effect on activities of Fridericia luciferase [5]: elevate
effect on long-term stability of bioluminescence intensities [6]: seldom influences the long-term stability

Molecule: [Cl][Mn][Cl] [Mn(II)]
effect on activities of Fridericia luciferase [5]: elevate
effect on optical intensities (activities) of ALuc16 [4]: boosting effect with Mn(II) was not observed

effect on optical intensities (activities) of ALuc16 [4]: little effect
Molecule: N [NH4^+]

effect on optical intensities (activities) of ALuc16 [4]: little effect
Molecule: [Na+] [Na^+]

Molecule: [Cl-].[Cl-].[Zn+2] [Zn(II)]
effect on optical intensity of OLuc [3]: inhibited the optical intensity
effect on optical intensities (activities) of ALuc16 [4]: suppress

Molecule: Cr(VI)
elevation of ALuc16 activities / optical intensities [4]: about 2 times

bioluminescence intensity with TPv2.4 [2]: strongest bioluminescence intensities
Molecule: coelenterazine f [CTZ f]

bioluminescence intensity with TPv2.4 [2]: strongest bioluminescence intensities
Molecule: coelenterazine h [CTZ h]

bioluminescence intensity with TPv2.4 [2]: weak luminescence intensities
Molecule: coelenterazine ip [CTZ ip]

initial luminescence intensity retained ([2]; 20 minutes after substrate injection): about 60%
Molecule: coelenterazine n [CTZ n]
luminescence intensity sustainability [2]: longer than that of native coelenterazine

bioluminescence intensity with TPv2.4 [2]: strongest bioluminescence intensities
Molecule: native coelenterazine [nCTZ]

B1: ALuc49: artificial luciferase, SEQ ID NO: 9 (protein)
chain: MMGIKVLFALVCLALVQAKPTEDEDEDDIVDVVGNFWAIGVDNDRDFTISADRGKLPGKKLPKEVLIEIEANAKKAGCTRGCLICLSKIKCTAKMKKWLPGRCHSYEGDKDTGQGGIGEPIVDAPEIPGFKDLTPMEQFIAQVDLCADCTTGCLKGLANVKCSALLKKWLPDRCASFADKIQKEVDYIKGLAGS
luminescence intensities as compared to conventional ALucs (e.g., ALuc16 and ALuc30) [7]: even stronger luminescence intensities

B2: ALuc41: artificial luciferase, SEQ ID NO: 2 (protein)
chain: MMGIKVLFALVCLALVQAKPTEDEDEDDIVDVVGNFWAIGVDNDRDFTISADRGKLPGKKLPKEVLIEIEANAKKAGCTRGCLICLSKIKCTAKMKKWLPGRCHSYEGDKDTGQGGIGEPIVDAPEIPGFKDLTPMEQFIAQVDLCADCTTGCLKGLANVKCSALLKKWLPDRCASFADKIQKEVDTIKGLAGS
luminescence intensities as compared to conventional ALucs (e.g., ALuc16 and ALuc30) [7]: relatively low luminescence intensities

B3: ALuc50: artificial luciferase, SEQ ID NO: 10 (protein)
chain: MMGIKVLFALVCLALVQAKPTEDEDEDDIVDVVGNFWAIGVDNDRDFTISADRGKLPGKKLPKEVLIEIEANAKKAGCTRGCLICLSKIKCTAKMKKWLPGRCHSYEGDKDTGQGGIGEPIVDAPEIPGFKDLTPMEQFIAQVDLCADCTTGCLKGLANVKCSALLKKWLPDRCASFADKIQKEVDFIKGLAGS
luminescence intensities as compared to conventional ALucs (e.g., ALuc16 and ALuc30) [7]: even stronger luminescence intensities

B4: ALuc47: artificial luciferase, SEQ ID NO: 7 (protein)
chain: MMGIKVLFALVCLALVQAKPTEDEDEDDIVDVVGNFWAIGVDNDRDFTISADRGKLPGKKLPKEVLIEIEANAKKAGCTRGCLICLSKIKCTAKMKKWLPGRCHSYEGDKDTGQGGIGEPIVDAPEIPGFKDLTPMEQFIAQVDLCADCTTGCLKGLANVKCSALLKKWLPDRCASFADKIQKEVGTIKGLLGS
luminescence intensities as compared to conventional ALucs (e.g., ALuc16 and ALuc30) [7]: relatively low luminescence intensities

B5: ALuc46: artificial luciferase, SEQ ID NO: 6 (protein)
chain: MMGIKVLFALVCLALVQAKPTEDEDEDDIVDVVGNFWAIGVDNDRDFTISADRGKLPGKKLPKEVLIEIEANAKKAGCTRGCLICLSKIKCTAKMKKWLPGRCHSYEGDKDTGQGGIGEPIVDAPEIPGFKDLTPMEQFIAQVDLCADCTTGCLKGLANVKCSALLKKWLPDRCASFADKIQSEVATIKGLAGS
luminescence intensities as compared to conventional ALucs (e.g., ALuc16 and ALuc30) [7]: relatively low luminescence intensities

B6: ALuc23: conventional artificial luciferase from the inventor's previous research, SEQ ID NO: 32 (protein)
chain: MMGIKVLFALICFALVQANPTENKDDIDIVGVEGKFGTTDLETDLFTIVEDMNVISRDTDVDANRADRGRRGKLPGKKLPLEVLKELEANAQKAGCTRGCLICLSHIKCTAKMKKWLPGRCESWEGDKETGQGGIGEAIVDIPEIPGFKELAPMEQFIAQVDLCADCTTGCLKGLANVKCSALLKKWLPSRCAGFADKIQAQVDTIKGAGGS
modifications: Synthetic Sequence - ALuc23
elevation of optical intensities at pH 7 as compared to pH 6 [8]: about 5 fold
intensities as share of the initial intensities 20 minutes after substrate injection [8]: 41%

B7: ALuc34: conventional artificial luciferase, SEQ ID NO: 35 (protein)
chain: MMGIKVLFALICFALVQANMMDYKDDDDKVGVEGKFGTTDLETDLFTIVEDMNVISRDTDVDANRADRGRRGKLPGKKLPLEVLKELEANAQKAGCTRGCLICLSHIKCTAKMKKWLPGRCESWEGDKETGQGGIGEAIVDIPEIPGFKELAPMEQFIAQVDLCADCTTGCLKGLANVKCSALLKKWLPSRCAGFADKIQAQVDTIKGAGGS
modifications: Synthetic Sequence - ALuc34
elevation of optical intensities at pH 7 as compared to pH 6 [8]: about 5 fold
intensities as share of the initial intensities 20 minutes after substrate injection [8]: 60%
